Measured values from ChEMBL document CHEMBL4184286, “Discovery of morpholine-based aryl sulfonamides as Nav1.7 inhibitors” (Bioorg Med Chem Lett, 2018).

What was measured:
[1] = target: Sodium channel protein type 9 subunit alpha (Homo sapiens, UniProt Q15858); assay: Antagonist activity at recombinant human Nav1.7 expressed in HEK293 cells assessed as reduction in channel current at -60 mV holding potential after 600 secs by barracuda automated electrophysiology method; type: cell-based
[2] = target: Sodium channel protein type 5 subunit alpha (Homo sapiens, UniProt Q14524); assay: Antagonist activity at recombinant human Nav1.5 expressed in HEK293 cells assessed as reduction in channel current at -50 mV holding potential after 600 secs by barracuda automated electrophysiology method; type: ADME, cell-based
Sodium channel protein type 5 subunit alpha, sequence (Q14524 whole entry): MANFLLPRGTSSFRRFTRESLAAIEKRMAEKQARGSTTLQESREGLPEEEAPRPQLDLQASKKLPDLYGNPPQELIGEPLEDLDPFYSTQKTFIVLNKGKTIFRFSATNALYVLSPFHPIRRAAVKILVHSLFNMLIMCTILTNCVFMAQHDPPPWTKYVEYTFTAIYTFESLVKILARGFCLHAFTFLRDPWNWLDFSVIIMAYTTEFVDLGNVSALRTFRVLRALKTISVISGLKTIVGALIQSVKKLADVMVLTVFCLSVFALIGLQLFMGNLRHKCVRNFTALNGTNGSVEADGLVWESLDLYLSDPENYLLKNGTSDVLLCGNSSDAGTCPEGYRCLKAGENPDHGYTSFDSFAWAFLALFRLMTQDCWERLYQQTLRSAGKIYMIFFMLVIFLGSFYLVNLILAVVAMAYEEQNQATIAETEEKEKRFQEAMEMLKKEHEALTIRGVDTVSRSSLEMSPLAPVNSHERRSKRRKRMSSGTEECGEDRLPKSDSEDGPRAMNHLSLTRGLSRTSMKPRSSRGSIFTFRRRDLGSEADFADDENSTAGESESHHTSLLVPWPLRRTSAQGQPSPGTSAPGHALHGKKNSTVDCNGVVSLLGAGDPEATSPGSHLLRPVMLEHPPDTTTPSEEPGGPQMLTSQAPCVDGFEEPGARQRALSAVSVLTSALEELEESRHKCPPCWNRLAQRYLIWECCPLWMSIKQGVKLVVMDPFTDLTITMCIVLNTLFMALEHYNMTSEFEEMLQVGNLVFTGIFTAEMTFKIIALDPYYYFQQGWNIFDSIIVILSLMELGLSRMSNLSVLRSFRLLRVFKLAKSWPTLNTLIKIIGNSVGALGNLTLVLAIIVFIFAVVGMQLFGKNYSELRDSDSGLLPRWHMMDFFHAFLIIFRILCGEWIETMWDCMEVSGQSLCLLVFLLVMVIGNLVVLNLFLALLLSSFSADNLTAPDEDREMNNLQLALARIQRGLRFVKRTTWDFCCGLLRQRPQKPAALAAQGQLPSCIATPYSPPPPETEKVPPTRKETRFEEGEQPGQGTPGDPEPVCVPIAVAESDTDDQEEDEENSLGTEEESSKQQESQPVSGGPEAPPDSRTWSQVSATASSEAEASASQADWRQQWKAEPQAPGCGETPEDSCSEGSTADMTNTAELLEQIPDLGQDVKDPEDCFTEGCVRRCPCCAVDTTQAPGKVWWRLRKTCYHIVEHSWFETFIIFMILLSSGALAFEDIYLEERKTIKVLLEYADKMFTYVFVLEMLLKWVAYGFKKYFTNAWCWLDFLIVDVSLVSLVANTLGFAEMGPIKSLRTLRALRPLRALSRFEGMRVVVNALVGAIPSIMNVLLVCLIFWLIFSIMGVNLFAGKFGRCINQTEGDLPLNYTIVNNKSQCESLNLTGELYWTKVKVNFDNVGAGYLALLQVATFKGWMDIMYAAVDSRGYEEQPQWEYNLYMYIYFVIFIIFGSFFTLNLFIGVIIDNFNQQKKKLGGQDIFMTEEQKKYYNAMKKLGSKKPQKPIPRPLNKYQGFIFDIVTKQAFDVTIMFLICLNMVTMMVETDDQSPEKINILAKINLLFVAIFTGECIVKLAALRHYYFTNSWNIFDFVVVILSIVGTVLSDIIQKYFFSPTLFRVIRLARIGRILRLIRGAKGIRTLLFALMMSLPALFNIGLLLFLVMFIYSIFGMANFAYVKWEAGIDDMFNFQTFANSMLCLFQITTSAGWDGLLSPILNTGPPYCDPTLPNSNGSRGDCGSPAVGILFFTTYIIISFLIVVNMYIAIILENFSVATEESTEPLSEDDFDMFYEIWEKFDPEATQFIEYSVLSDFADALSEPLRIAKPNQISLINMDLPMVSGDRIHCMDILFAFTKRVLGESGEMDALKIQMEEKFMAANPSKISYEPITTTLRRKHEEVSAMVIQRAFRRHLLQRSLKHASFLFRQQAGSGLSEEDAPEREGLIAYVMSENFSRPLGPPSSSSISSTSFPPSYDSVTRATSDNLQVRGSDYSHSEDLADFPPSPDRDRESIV

Sodium channel protein type 9 subunit alpha, sequence (Q15858 whole entry): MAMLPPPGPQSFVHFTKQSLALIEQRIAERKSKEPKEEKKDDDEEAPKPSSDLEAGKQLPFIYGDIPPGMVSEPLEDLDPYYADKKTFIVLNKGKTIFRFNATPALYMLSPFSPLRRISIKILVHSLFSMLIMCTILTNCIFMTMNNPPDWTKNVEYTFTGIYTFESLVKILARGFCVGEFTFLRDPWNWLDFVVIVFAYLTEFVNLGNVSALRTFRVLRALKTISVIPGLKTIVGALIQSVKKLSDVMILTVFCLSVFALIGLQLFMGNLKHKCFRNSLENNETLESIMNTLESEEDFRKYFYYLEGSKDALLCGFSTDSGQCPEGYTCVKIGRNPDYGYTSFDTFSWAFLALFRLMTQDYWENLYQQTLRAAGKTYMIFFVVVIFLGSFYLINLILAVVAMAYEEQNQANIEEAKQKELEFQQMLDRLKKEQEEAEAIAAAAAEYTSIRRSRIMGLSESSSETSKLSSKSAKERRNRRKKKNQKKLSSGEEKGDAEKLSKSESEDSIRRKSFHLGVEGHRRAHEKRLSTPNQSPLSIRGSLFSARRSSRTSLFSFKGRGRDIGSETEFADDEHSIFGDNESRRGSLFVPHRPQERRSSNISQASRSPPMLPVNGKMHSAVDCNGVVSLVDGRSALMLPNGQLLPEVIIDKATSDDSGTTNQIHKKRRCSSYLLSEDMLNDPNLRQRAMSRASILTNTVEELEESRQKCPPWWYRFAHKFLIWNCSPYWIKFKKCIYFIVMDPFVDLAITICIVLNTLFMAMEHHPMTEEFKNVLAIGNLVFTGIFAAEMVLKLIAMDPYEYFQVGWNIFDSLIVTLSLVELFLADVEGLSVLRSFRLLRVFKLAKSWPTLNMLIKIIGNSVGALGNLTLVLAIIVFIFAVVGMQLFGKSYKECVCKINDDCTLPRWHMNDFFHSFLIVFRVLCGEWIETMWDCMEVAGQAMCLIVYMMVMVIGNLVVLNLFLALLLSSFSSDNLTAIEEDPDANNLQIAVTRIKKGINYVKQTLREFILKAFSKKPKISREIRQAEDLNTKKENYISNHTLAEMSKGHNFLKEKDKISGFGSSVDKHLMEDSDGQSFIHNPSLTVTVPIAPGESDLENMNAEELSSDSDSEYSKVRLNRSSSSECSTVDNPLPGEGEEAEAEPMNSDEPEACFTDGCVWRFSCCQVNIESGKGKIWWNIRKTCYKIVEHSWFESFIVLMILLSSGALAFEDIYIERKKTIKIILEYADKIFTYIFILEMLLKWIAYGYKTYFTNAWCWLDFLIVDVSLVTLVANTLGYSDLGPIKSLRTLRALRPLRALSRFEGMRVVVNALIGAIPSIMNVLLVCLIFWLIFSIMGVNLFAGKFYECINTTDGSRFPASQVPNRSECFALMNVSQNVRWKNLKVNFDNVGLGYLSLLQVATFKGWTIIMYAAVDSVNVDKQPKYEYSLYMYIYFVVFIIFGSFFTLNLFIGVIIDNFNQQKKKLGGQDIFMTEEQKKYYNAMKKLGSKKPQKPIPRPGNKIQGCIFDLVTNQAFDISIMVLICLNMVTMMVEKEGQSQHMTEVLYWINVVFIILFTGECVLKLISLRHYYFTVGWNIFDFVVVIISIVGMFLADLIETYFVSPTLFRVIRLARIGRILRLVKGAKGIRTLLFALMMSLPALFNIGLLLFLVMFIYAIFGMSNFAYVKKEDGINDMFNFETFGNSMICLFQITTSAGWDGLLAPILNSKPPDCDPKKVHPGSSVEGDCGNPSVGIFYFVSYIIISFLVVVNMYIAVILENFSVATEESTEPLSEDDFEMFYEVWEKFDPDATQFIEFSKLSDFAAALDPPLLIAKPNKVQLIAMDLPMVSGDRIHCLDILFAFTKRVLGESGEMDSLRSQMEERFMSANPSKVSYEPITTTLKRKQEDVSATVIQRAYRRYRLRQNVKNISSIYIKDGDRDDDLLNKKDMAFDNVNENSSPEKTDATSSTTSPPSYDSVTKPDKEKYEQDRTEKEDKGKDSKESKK

`O=S(=O)(Nc1ncns1)c1cc(F)c(OC[C@H]2NCCO[C@@H]2c2ccc(Cl)cc2)cc1F` was tested, and the IC50 [1] was 1500 nM.
For `COc1ccccc1C1NCCOC1Oc1cc(F)c(S(=O)(=O)Nc2ncns2)cc1F` (single isomer, unassigned; isomer B), the IC50 [1] was 4600 nM and the IC50 ([2]; hek293) was > 30000 nM.
For `O=S(=O)(Nc1ncns1)c1cc(F)c(OC2OCCNC2c2ccc3cnccc3c2)cc1F` (single isomer, unassigned; isomer B), the IC50 [1] was 510 nM and the IC50 [2] was > 30000 nM.
For `O=S(=O)(Nc1ncns1)c1cc(F)c(OC2OCCNC2c2ccc(Cl)nc2)cc1F` (single isomer, unassigned; isomer B), the IC50 [1] was 15000 nM and the IC50 [2] was > 30000 nM.
For `CC(C)[C@H]1COC(Oc2cc(F)c(S(=O)(=O)Nc3ncns3)cc2F)C(c2cc(Cl)cc(Cl)c2)N1` (single isomer, unassigned; isomer A), the IC50 [1] was 430 nM.
For `Cn1nccc1C1NCCOC1Oc1cc(F)c(S(=O)(=O)Nc2ncns2)cc1F` (single isomer, unassigned; isomer A), the IC50 [1] was 5800 nM and the IC50 ([2]; hek293) was > 30000 nM.
For `CC1(C)CNC(c2cc(Cl)cc(Cl)c2)C(Oc2cc(F)c(S(=O)(=O)Nc3ncns3)cc2F)O1` (single isomer, unassigned; isomer B), the IC50 [1] was 450 nM.
With `COc1ccc(C2NCCOC2Oc2cc(F)c(S(=O)(=O)Nc3ncns3)cc2F)cc1` (single isomer, unassigned; isomer B) the IC50 [1] was 1800 nM and the IC50 ([2]; hek293) was > 30000 nM.
`O=S(=O)(Nc1ncns1)c1cc(F)c(OC2OCCNC2c2ccc3ncccc3c2)cc1F` (single isomer, unassigned; isomer B) was tested, and the IC50 [1] was 1600 nM and the IC50 [2] was > 30000 nM.
Compound `O=S(=O)(Nc1ncns1)c1cc(F)c(OC2OCCNC2c2cc(Cl)cc(Cl)c2)cc1F` (single isomer, unassigned; isomer B) has an IC50 [1] of 28 nM and an IC50 [2] of 5600 nM.
In the case of `CC(C)C[C@@H]1COC(Oc2cc(F)c(S(=O)(=O)Nc3ncns3)cc2F)C(c2cc(Cl)cc(Cl)c2)N1` (single isomer, unassigned; isomer A), the IC50 [1] is reported as 1700 nM.
With `Cn1nccc1C1NCCOC1Oc1cc(F)c(S(=O)(=O)Nc2ncns2)cc1F` (stereo in doubt; 55) the IC50 [1] was 1800 nM and the IC50 [2] was > 30000 nM.
For `O=S(=O)(Nc1ncns1)c1cc(F)c(OC2OCCNC2c2ccc3ncccc3c2)cc1F` (single isomer, unassigned; isomer A), the IC50 [1] was 2800 nM and the IC50 ([2]; hek293) was > 30000 nM.
With `Cn1nc(C(F)(F)F)cc1C1NCCOC1Oc1cc(F)c(S(=O)(=O)Nc2ncns2)cc1F` (single isomer, unassigned; isomer B) the IC50 [1] was 4500 nM and the IC50 [2] was > 30000 nM.
`O=S(=O)(Nc1ncns1)c1cc(F)c(OC2OCCNC2c2ccc(Cl)c(Cl)c2)cc1F` (single isomer, unassigned; isomer A) gave an IC50 [1] of 1200 nM and an IC50 [2] of 1000 nM.
`O=S(=O)(Nc1ncns1)c1cc(F)c(OC2OCCNC2c2ccc(C(F)(F)F)cc2)cc1F` (single isomer, unassigned; isomer A) was tested, and the IC50 [1] was 390 nM and the IC50 [2] was > 30000 nM.
`CC(C)[C@@H]1COC(Oc2cc(F)c(S(=O)(=O)Nc3ncns3)cc2F)C(c2cc(Cl)cc(Cl)c2)N1` (single isomer, unassigned; isomer B) showed an IC50 [1] of 25000 nM.
For `O=S(=O)(Nc1ncns1)c1cc(F)c(OC2OCCNC2c2ccc(Cl)cc2Cl)cc1F` (single isomer, unassigned; isomer A), the IC50 [1] was 260 nM and the IC50 [2] was 1700 nM.
`O=S(=O)(Nc1ncns1)c1cc(F)c(CO[C@H]2OCCN[C@@H]2c2ccc(F)cc2)cc1F` was tested, and the IC50 [1] was 2500 nM.
With `O=S(=O)(Nc1ncns1)c1cc(F)c(OC2OCCNC2c2ccc(C(F)(F)F)cc2)cc1F` (single isomer, unassigned; isomer B) the IC50 [1] was 9700 nM and the IC50 ([2]; hek293) was > 30000 nM.
`COc1cccc(C2NCCOC2Oc2cc(F)c(S(=O)(=O)Nc3ncns3)cc2F)c1` (single isomer, unassigned; isomer B) was tested, and the IC50 [1] was 1600 nM and the IC50 ([2]; hek293) was > 30000 nM.
`N#Cc1cccc(C2NCCOC2Oc2cc(F)c(S(=O)(=O)Nc3ncns3)cc2F)c1` (single isomer, unassigned; isomer B) was tested, and the IC50 [1] was 11000 nM and the IC50 ([2]; hek293) was > 30000 nM.
In the case of `CC(C)C[C@H]1COC(Oc2cc(F)c(S(=O)(=O)Nc3ncns3)cc2F)C(c2cc(Cl)cc(Cl)c2)N1` (single isomer, unassigned; isomer A), the IC50 [1] is reported as 1100 nM.
Compound `CN(C)c1noc2ccc(C3NCCOC3Oc3cc(F)c(S(=O)(=O)Nc4ncns4)cc3F)cc12` (single isomer, unassigned; isomer A) has an IC50 [1] of 70 nM.
In the case of `O=S(=O)(Nc1ncns1)c1cc(F)c(OC2OCCNC2c2ccc3cnccc3c2)cc1F` (single isomer, unassigned; isomer A), the IC50 [1] is reported as 1400 nM and the IC50 ([2]; hek293) is reported as > 30000 nM.
Compound `O=S(=O)(Nc1ncns1)c1cc(F)c(OC[C@H]2OCCN[C@@H]2c2ccc(Cl)cc2)cc1F` has an IC50 [1] of 29000 nM.
`O=S(=O)(Nc1ncns1)c1cc(F)c(OC2OCCNC2c2ccc(F)cc2)cc1F` (single isomer, unassigned; isomer A) was tested, and the IC50 [1] was 690 nM and the IC50 [2] was > 30000 nM.
`CC(C)C[C@H]1COC(Oc2cc(F)c(S(=O)(=O)Nc3ncns3)cc2F)C(c2cc(Cl)cc(Cl)c2)N1` (stereo in doubt; 61) was tested, and the IC50 [1] was 6500 nM.
With `O=S(=O)(Nc1ncns1)c1cc(F)c(OC2OCCNC2c2ccc3c(c2)OCO3)cc1F` (single isomer, unassigned; isomer A) the IC50 [1] was 1500 nM and the IC50 ([2]; hek293) was > 30000 nM.
For `O=S(=O)(Nc1ncns1)c1cc(F)c(OC2OCCNC2c2cccc3nccnc23)cc1F` (single isomer, unassigned; isomer B), the IC50 [1] was 6300 nM and the IC50 [2] was > 30000 nM.
In the case of `O=S(=O)(Nc1ncns1)c1cc(F)c(OC2OCCNC2c2ccc(Cl)c(Cl)c2)cc1F` (single isomer, unassigned; isomer B), the IC50 [1] is reported as 170 nM and the IC50 [2] is reported as 3000 nM.
For `O=S(=O)(Nc1ncns1)c1cc(F)c(OC2OCCNC2c2ccc(Cl)nc2)cc1F` (single isomer, unassigned; isomer A), the IC50 [1] was 17000 nM and the IC50 ([2]; hek293) was > 30000 nM.
In the case of `O=S(=O)(Nc1ncns1)c1cc(F)c(OC2OCCNC2c2cccc3nccnc23)cc1F` (single isomer, unassigned; isomer A), the IC50 [1] is reported as 6600 nM and the IC50 ([2]; hek293) is reported as > 30000 nM.
With `N#Cc1ccc(C2NCCOC2Oc2cc(F)c(S(=O)(=O)Nc3ncns3)cc2F)cc1` (single isomer, unassigned; isomer B) the IC50 [1] was 4000 nM and the IC50 ([2]; hek293) was > 30000 nM.
Compound `CC(C)[C@@H]1COC(Oc2cc(F)c(S(=O)(=O)Nc3ncns3)cc2F)C(c2cc(Cl)cc(Cl)c2)N1` (stereo in doubt; 66) has an IC50 [1] of 14000 nM.
Work on `O=S(=O)(Nc1ncns1)c1cc(F)c(OC2OCCNC2c2cccc(C(F)(F)F)c2)cc1F` (single isomer, unassigned; isomer A) yielded an IC50 [1] of 310 nM and an IC50 [2] of 580 nM.
`COc1ccccc1C1NCCOC1Oc1cc(F)c(S(=O)(=O)Nc2ncns2)cc1F` (single isomer, unassigned; isomer A) was tested, and the IC50 [1] was 200 nM and the IC50 [2] was > 30000 nM.
For `CC1(C)COC(Oc2cc(F)c(S(=O)(=O)Nc3ncns3)cc2F)C(c2ccc(Cl)cc2)N1` (single isomer, unassigned; isomer A), the IC50 [1] was 350 nM.
In the case of `O=S(=O)(Nc1ncns1)c1cc(F)c(OC2OCCNC2c2cc(Cl)cc(Cl)c2)cc1F` (single isomer, unassigned; isomer A), the IC50 [1] is reported as 840 nM and the IC50 ([2]; hek293) is reported as 5600 nM.
Work on `CC1(C)CNC(c2cc(Cl)cc(Cl)c2)C(Oc2cc(F)c(S(=O)(=O)Nc3ncns3)cc2F)O1` (single isomer, unassigned; isomer A) yielded an IC50 [1] of 140 nM.
`CC(C)[C@H]1COC(Oc2cc(F)c(S(=O)(=O)Nc3ncns3)cc2F)C(c2cc(Cl)cc(Cl)c2)N1` (single isomer, unassigned; isomer B) gave an IC50 [1] of 1100 nM.
In the case of `COc1ccc(C2NCCOC2Oc2cc(F)c(S(=O)(=O)Nc3ncns3)cc2F)cc1` (single isomer, unassigned; isomer A), the IC50 [1] is reported as 810 nM and the IC50 [2] is reported as > 30000 nM.
`COc1cccc(C2NCCOC2Oc2cc(F)c(S(=O)(=O)Nc3ncns3)cc2F)c1` (single isomer, unassigned; isomer A) was tested, and the IC50 [1] was 390 nM and the IC50 [2] was > 30000 nM.
In the case of `O=S(=O)(Nc1ncns1)c1cc(F)c(OC2OCCNC2c2ccc3c(c2)OCO3)cc1F` (single isomer, unassigned; isomer B), the IC50 [1] is reported as 1100 nM and the IC50 [2] is reported as > 30000 nM.
For `N#Cc1cccc(C2NCCOC2Oc2cc(F)c(S(=O)(=O)Nc3ncns3)cc2F)c1` (single isomer, unassigned; isomer A), the IC50 [1] was 920 nM and the IC50 [2] was > 30000 nM.
For `N#Cc1ccc(C2NCCOC2Oc2cc(F)c(S(=O)(=O)Nc3ncns3)cc2F)cc1` (single isomer, unassigned; isomer A), the IC50 [1] was 1500 nM and the IC50 [2] was > 30000 nM.
In the case of `CC1(C)COC(Oc2cc(F)c(S(=O)(=O)Nc3ncns3)cc2F)C(c2ccc(Cl)cc2)N1` (single isomer, unassigned; isomer B), the IC50 [1] is reported as 580 nM.
Compound `O=S(=O)(Nc1ncns1)c1cc(F)c(OC2OCCNC2c2cccc(C(F)(F)F)c2)cc1F` (single isomer, unassigned; isomer B) has an IC50 [1] of 570 nM and an IC50 [2] of 4800 nM.
With `CC(C)C[C@@H]1COC(Oc2cc(F)c(S(=O)(=O)Nc3ncns3)cc2F)C(c2cc(Cl)cc(Cl)c2)N1` (single isomer, unassigned; isomer B) the IC50 [1] was > 30000 nM.
In the case of `CC1(C)CN[C@@H](c2cc(Cl)cc(Cl)c2)[C@H](Oc2cc(F)c(S(=O)(=O)Nc3ncns3)cc2F)O1`, the IC50 [1] is reported as 3300 nM and the IC50 [2] is reported as 4400 nM.
`CN(C)c1noc2ccc(C3NCCOC3Oc3cc(F)c(S(=O)(=O)Nc4ncns4)cc3F)cc12` (single isomer, unassigned; isomer B) was tested, and the IC50 [1] was 140 nM and the IC50 [2] was 5000 nM.
